Literature values in patent publication US20260071096A1, “BONDED ABRASIVE ARTICLES AND METHODS OF MANUFACTURE” (3M INNOVATIVE PROPERTIES COMPANY, priority 2020, published 2026).

Conditions: species and route not given

Q: With `c1ccc2ccccc2c1` [Naphthalene, naphthalene] as the compound, how does the “LD50 (mean lethal dose)” value read?
A: Its value is 490 mg/kg.
